This is an account of results in US10149833B2, “Small molecule, indirubin-3-oxime, for prevention and treatment of bone disease” (Industry-Academic Cooperation Foundation, Yonsei University, priority 2013, dated 2018).

For test [1], the system named is β-catenin. The experiment in a line: Western blot in RCS cells, β-catenin. The class given is cell-based, Rat. Particulars: 24 hours treatment (FIG. 2A). The procedure: (§1) Rat chondrosarcoma (RCS) cells were cultured in a Dulbecco's modified Eagle's medium (DMEM; Gibco, Grand Island, N.Y.), supplemented with 10% fetal bovine serum (FBS) and penicillin/streptomycin.
(§2) For Western blot analysis, cells were treated with indirubin-3′-oxime for 24 hours, cultured and reached to 70% confluency and then were harvested. After the harvested samples underwent cytolysis, the proteins were quantified, which was followed by electrophoresis using 10% or 12% SDA-PAGE gel. Afterwards, immunoblot was conducted using antibodies.
(§3) Indirubin-3′-oxime, a GSKβ inhibitor, is already known to increase the stability of β-catenin.
(In general: In western blotting, separated proteins are transferred to a membrane and probed.)

For test [2], the system named is β-catenin. The test is described as follows: IHC analysis on ex vivo tibia tissues. It is filed as cell-based, mice. The settings on record: ex vivo tibiae treated with the drug (FIG. 2C). The procedure: (§4) The tibiae were separated from 15.5-embryonic-day-old C57BL/6 mice, and were incubated in a 24-well tissue culture dish for 7 days. The medium used was prepared by adding 10% FBS, 1 mM beta-polyglycerol disodium phosphate, 50 ng/ml ascorbic acid, 0.3 mg/ml L-glutamine, 0.2% BSA, 100 U/ml penicillin, and 100 μg/ml streptomycin to a minimal essential medium (α-MEM, Gibco). Then, the tibiae were separated from the mice. After being treated in the medium for 24 hours, the tibia was treated with a drug. The medium and the drug were changed every two days. The tibia length was measured before and after treatment with the drug. The tibial tissue, on which drug treatment was completed, was rinsed with PBS and then fixed using 4% formaldehyde.
(§5) The tibiae that underwent a dewaxing process were dehydrated. After paraffin blocks were formed, the tissues were sectioned at 4-μm thickness. The sectioned tissues were rehydrated, and then stained using immunofluorescence.
as §3

Test [3] deals with β-catenin. The test is described as follows: ICC analysis (immunocytochemistry), β-catenin translocation into the nucleus. The class given is cell-based, Rat. Particulars: RCS cells, 24 hours treatment (FIG. 2B). The procedure:
as §1
2.5×10^4 cells were adhered to a cover glass placed in a 12-well plate. Once securely attached, cells were treated with indirubin-3′-oxime for 24 hours, and then were rinsed with a phosphoric acid buffer solution. After adding 4% paraformaldehyde, cells were fixed at room temperature for 20 min. Then, proteins expressed in the cells were observed through cell membrane permeation, blocking, and immunofluorescent staining processes.
as §3

Test [4] relates to tibia. The experiment in a line: tibia and growth plate length in mice dosed during a period of active growth. It is filed as in vivo, C57BL/6 mice. The procedure:
(§6) Two and six-week-old C57BL/6 mice, purchased from KOATECH (Gyeonggi-do, South Korea), were cared for in accordance with the guidelines established by the Institutional Animal Care and Use Committee at Yonsei University. The mice were divided into a control group and an experimental group, and were adapted to the environment for 1 week. Afterwards, they were treated every day for 2 weeks with a solution containing 20% dimethyl […] and 30% ethanol, or with indirubin-3′-oxime (0.05 mg/kg, 0.1 mg/kg, and 0.5 mg/kg), via intraperitoneal injection. Two weeks later, the tibiae were separated from mice, and then the muscles were separated and removed, after which the bones were fixed using 4% formaldehyde. The bones were treated for 2 weeks with a 10% EDTA solution for the decalcification process. The EDTA solution was changed every two days.
(§7) The tissue-cultured embryo tibiae and the animal-tested tibiae were dewaxed in xylene, and were rehydrated in a stepwise-diluted ethanol solution. The tibial tissue, which was separated from 15.5-embryonic-day-old ICR mice and then tissue-cultured, was stained using the safranin staining procedure. Staining was carried out for 25 min in a 0.02% fast green solution, and after brief dipping in acetic acid, was again carried out for 7 min in a 0.1% safranin solution. Meanwhile, the tibial tissue that was animal-tested and decalcified in EDTA was stained via the hematoxylin-eosin staining procedure. The tissue was stained in a hematoxylin solution for 10 min and then rinsed in running water for 10 min. After being briefly dipped in a solution comprising 0.1% hydrochloric acid and 70% ethanol, the tissue was stained for 30 sec in an eosin solution. The stained tibial tissues again underwent a dehydration process in the stepwise-diluted ethanol solution and were dewaxed in xylene.
as §5
To understand whether indirubin-3′-oxime can actually produce an increase in bone length in mice, indirubin-3′-oxime was administered during a period of active growth, and its effect was examined (FIG. 4A). First of all, the effect on the activity of the growth plate in the middle of a period of growth was examined using the hematoxylin-eosin staining procedure (FIG. 4B).

Test [5] relates to GSKβ. The test is described as follows: Western blot in RCS cells, inactive GSKβ. The class given is cell-based, Rat. Particulars: 24 hours treatment (FIG. 2A). The procedure:
as §1, §2, §3

Test [6] deals with growth plate. The experiment in a line: growth plate activity in 7-week-old mice treated for 2 weeks. The class given is in vivo, C57BL/6 mice. The settings on record: treated 2 weeks. The procedure: as §6, §7
The tibiae that underwent a dewaxing process were dehydrated. After paraffin blocks were formed, the tissues were sectioned at 4-μm thickness. The sectioned tissues were rehydrated, and then stained using immunofluorescence. […]

The test system of test [7] is ex vivo tibia. The experiment in a line: ex vivo tibia culture, tibia length and safranin staining. The class given is cell-based, C57BL/6 mice. The settings on record: 1 μM and 5 μM. The procedure: as §4, with “formaldehyde. The tissue-cultured embryo tibiae and the animal-tested tibiae were dewaxed in xylene, and were rehydrated in a stepwise-diluted ethanol solution. The tibial tissue, which was separated from 15.5-embryonic-day-old ICR mice and then tissue-cultured, was stained using the safranin staining procedure. Staining was carried out for 25 min in a 0.02% fast green solution, and after brief dipping in acetic acid, was again carried out for 7 min in a 0.1% safranin solution. Meanwhile, the tibial tissue that was animal-tested and decalcified in EDTA was stained via the hematoxylin-eosin staining procedure. […]” for “formaldehyde.”

[8] abbreviates: growth plate at 9 weeks (FIG. 3C).

Entries after “also recorded” stand apart in the source; their conditions may differ.

For the molecule `O=C1Nc2ccccc2/C1=C1/Nc2ccccc2/C1=N\O` [indirubin-3′-oxime], the “stability of β-catenin (Western blot)” value in test [1] is on record as “increased the stability of β-catenin”. Moreover, the “amount of β-catenin in the hypertrophic chondrocyte zone (IHC)” value in test [2] is “amount of β-catenin markedly increased in the hypertrophic chondrocyte zone”. The “amount of β-catenin translocated into the nucleus (ICC)” value in test [3] is “increase in the amount of β-catenin that was translocated into the nucleus”. The “persistence of the bone length effect after growth has ceased” value in test [4] (13-week-old mice (FIGS. 4D, 4E)) was “lasts even in 13-week-old mice; also recorded: found to last even in 13-week-old mice”. Further, the “cell proliferation marker PCNA” value in test [4] (mice dosed during period of active growth (FIG. 4B)) was “confirmed through PCNA”. Besides, in test [4] (mice dosed during period of active growth (FIG. 4D)), the “total bone length of the tibia” value is given as “increase in the total bone length of the tibia”. Also, the “length of each zone and total length of the growth plate” value in test [4] (mice dosed during period of active growth, hematoxylin-eosin staining (FIGS. 4B, 4C)) is reported as “increases not only the length of each zone but also the total length of the growth plate; also recorded: increase not only in the length of each zone but also in the total length of the growth plate”. In addition, the “amount of inactive GSKβ (Western blot)” value in test [5] is “increasing the amount of inactive GSK3; also recorded: increasing the amount of inactive GSKβ”. In test [6] (setting [8]), the “amount of Ki67, cell proliferation marker (IHC)” value was “increase in the amount of Ki67” and the “stability of β-catenin in growth plate (IHC)” value was “increase in the stability of β-catenin”. Further, the “activity of the growth plate (hematoxylin-eosin staining)” value in test [6] (intraperitoneal, compared with control at 9 weeks (FIG. 3B)) is reported as “inhibits growth plate senescence; also recorded: activity of the growth plate was still maintained”. The “length of resting zone, proliferating zone and hypertrophic chondrocyte zone (safranin staining)” value in test [7] (6 days, ex vivo tibia (FIGS. 1C, 1D)) is “increase in the total length (the resting zone, the proliferating zone, and the hypertrophic chondrocyte zone) that depended on the concentration”. Also, the “increase in the total length of the tibia” value in test [7] (tibiae treated for 6 days, ex vivo culture (FIGS. 1A, 1B)) is reported as “dose-dependently induces longitudinal bone growth; also recorded: increase in the total length depended on the concentration change”.
